Results taken from PubChem BioAssay (NCI).
“And” between values parts separate entries of the source, which are not always exact repeats. Equal entries are not always repeated.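 Assay format: 96-well plates, 48-hour exposure. GI50: concentration for 50% inhibition of growth. TGI marks complete inhibition of growth.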

What was measured:
Experiment in all cases: inhibition of tumour cell growth, NCI panel, 48 h
NCI/ADR-RES ovarian = system: NCI/ADR-RES ovarian
OVCAR-5 ovarian = system: OVCAR-5 ovarian
UACC-62 melanoma = system: UACC-62 melanoma
SN12C renal = system: SN12C renal
OVCAR-3 ovarian = system: OVCAR-3 ovarian
SF-539 CNS = system: SF-539 CNS
MDA-MB-435 = system: MDA-MB-435
HOP-92 NSCLC = system: HOP-92 NSCLC
OVCAR-8 ovarian = system: OVCAR-8 ovarian
RPMI-8226 leukemia = system: RPMI-8226 leukemia
EKVX NSCLC = system: EKVX NSCLC
UO-31 renal = system: UO-31 renal
U251 CNS = system: U251 CNS
HCC-2998 colon = system: HCC-2998 colon
DU-145 prostate = system: DU-145 prostate
KM12 colon = system: KM12 colon
SK-MEL-5 melanoma = system: SK-MEL-5 melanoma
SK-MEL-28 melanoma = system: SK-MEL-28 melanoma
HT29 colon = system: HT29 colon
HCT-116 colon = system: HCT-116 colon
NCI-H23 lung = system: NCI-H23 lung
MOLT-4 leukemia = system: MOLT-4 leukemia
ACHN renal = system: ACHN renal
BT-549 breast = system: BT-549 breast
MDA-MB-231 breast = system: MDA-MB-231 breast
COLO 205 colon = system: COLO 205 colon
SW-620 colon = system: SW-620 colon
NCI-H226 lung = system: NCI-H226 lung
SR leukemia = system: SR leukemia
K-562 leukemia = system: K-562 leukemia
SK-OV-3 ovarian = system: SK-OV-3 ovarian
IGROV1 ovarian = system: IGROV1 ovarian
TK-10 renal = system: TK-10 renal
SF-268 CNS = system: SF-268 CNS
SK-MEL-2 melanoma = system: SK-MEL-2 melanoma
CAKI-1 renal = system: CAKI-1 renal
A549 NSCLC = system: A549 NSCLC
OVCAR-4 ovarian = system: OVCAR-4 ovarian
A498 renal = system: A498 renal
PC-3 prostate = system: PC-3 prostate
MALME-3M melanoma = system: MALME-3M melanoma
MCF7 breast = system: MCF7 breast
M14 melanoma = system: M14 melanoma
HOP-62 NSCLC = system: HOP-62 NSCLC
NCI-H460 lung = system: NCI-H460 lung
UACC-257 melanoma = system: UACC-257 melanoma
T-47D breast = system: T-47D breast
SNB-19 CNS = system: SNB-19 CNS
SNB-75 CNS = system: SNB-75 CNS
HCT-15 colon = system: HCT-15 colon
LOX IMVI melanoma = system: LOX IMVI melanoma
786-0 renal = system: 786-0 renal
RXF 393 renal = system: RXF 393 renal
HL-60(TB) leukemia = system: HL-60(TB) leukemia
SF-295 CNS = system: SF-295 CNS
HS 578T breast = system: HS 578T breast

## CC(C)C[C@H](NC(=O)[C@H](Cc1cccc2ccccc12)NC(=O)N1CCOCC1)B(O)O
NCI/ADR-RES ovarian
  GI50: 267 nM
OVCAR-5 ovarian
  GI50: 1.86 nM
  TGI: 5.34 nM and < 40.5 nM
UACC-62 melanoma
  GI50: 1.29 nM
  TGI: 3.38 nM
SN12C renal
  GI50: 2.9 nM
  TGI: 11.5 nM and < 26.6 nM
OVCAR-3 ovarian
  GI50: 0.519 nM
  TGI: 1.71 nM
SF-539 CNS
  GI50: 0.154 nM
  TGI: 0.32 nM
MDA-MB-435
  GI50: 0.136 nM
  TGI: 0.308 nM
HOP-92 NSCLC
  GI50: 0.654 nM
  TGI: 3.22 nM and < 12.2 nM
OVCAR-8 ovarian
  GI50: 11.3 nM
  TGI: 62.6 nM
RPMI-8226 leukemia
  GI50: 0.359 nM
  TGI: 6.18 nM
EKVX NSCLC
  GI50: 9.28 nM
  TGI: 159 nM
UO-31 renal
  TGI: 159 nM and 211 nM
U251 CNS
  GI50: 1.96 nM
  TGI: 24.5 nM and 42.9 nM
HCC-2998 colon
  GI50: 1.58 nM
  TGI: 3.02 nM
DU-145 prostate
  TGI: 116 nM and < 24.9 nM
KM12 colon
  GI50: 1.49 nM
  TGI: 3.76 nM
SK-MEL-5 melanoma
  TGI: 2.37 nM
SK-MEL-28 melanoma
  GI50: 0.205 nM
  TGI: 0.96 nM and < 32.9 nM
HT29 colon
  GI50: 1.31 nM
  TGI: 4.48 nM
HCT-116 colon
  GI50: 0.452 nM
  TGI: 1.82 nM
NCI-H23 lung
  GI50: 1.88 nM
  TGI: 7.6 nM
MOLT-4 leukemia
  GI50: 0.339 nM
ACHN renal
  TGI: > 100000 nM
BT-549 breast
  GI50: 0.39 nM
MDA-MB-231 breast
  GI50: 1.88 nM
  TGI: 3.98 nM
COLO 205 colon
  GI50: 4.82 nM and 15 nM
SW-620 colon
  TGI: 2.86 nM and 11.5 nM
NCI-H226 lung
  TGI: 0.49 nM
SR leukemia
  GI50: 2.76 nM
  TGI: 13 nM
K-562 leukemia
  GI50: 3.47 nM
SK-OV-3 ovarian
  GI50: 226 nM
  TGI: > 100000 nM
IGROV1 ovarian
  GI50: 4.08 nM
  TGI: 48.5 nM
TK-10 renal
  GI50: 2.81 nM
  TGI: 22.6 nM
SF-268 CNS
  GI50: 0.925 nM
  TGI: 3.28 nM
SK-MEL-2 melanoma
  GI50: 0.68 nM
  TGI: 2.51 nM and < 15.9 nM
CAKI-1 renal
  GI50: 2.83 nM
  TGI: 14.7 nM and 37.1 nM
A549 NSCLC
  GI50: 6.09 nM
  TGI: 267 nM
OVCAR-4 ovarian
  TGI: > 100000 nM
A498 renal
  GI50: 0.871 nM
  TGI: 28.8 nM and < 14.3 nM
PC-3 prostate
  GI50: 4.73 nM
  TGI: 19.1 nM and < 23.5 nM
MALME-3M melanoma
  GI50: 0.373 nM
  TGI: 3.06 nM and < 16.9 nM
MCF7 breast
  GI50: 0.351 nM
  TGI: 139 nM
M14 melanoma
  GI50: 0.443 nM
  TGI: 1.54 nM and < 12.5 nM
HOP-62 NSCLC
  GI50: 3.83 nM
  TGI: 13.7 nM and < 18 nM
NCI-H460 lung
  GI50: 15.1 nM
  TGI: 54.2 nM and 42.3 nM
UACC-257 melanoma
  GI50: 1.72 nM
  TGI: 4.95 nM
T-47D breast
  GI50: 0.817 nM
  TGI: 2.75 nM
SNB-19 CNS
  TGI: > 100000 nM
SNB-75 CNS
  GI50: 0.622 nM
  TGI: 3.48 nM
HCT-15 colon
  GI50: 36.3 nM
  TGI: 303 nM and 1760 nM
LOX IMVI melanoma
  GI50: 1.14 nM
  TGI: 3.04 nM
786-0 renal
  TGI: 199 nM and 1090 nM
RXF 393 renal
  TGI: 1.95 nM

## CCC[CH2][Sn-]([CH2]CCC)([CH2]CCC)[O]c1cc(Cl)c(Cl)cc1Cl
NCI/ADR-RES ovarian
  GI50: 163 nM
  TGI: 385 nM
UACC-62 melanoma
  GI50: 152 nM
  TGI: 394 nM
SN12C renal
  GI50: 164 nM
  TGI: 338 nM
OVCAR-3 ovarian
  GI50: 176 nM
  TGI: 365 nM
SF-539 CNS
  GI50: 267 nM
  TGI: 437 nM
MDA-MB-435
  GI50: 160 nM
  TGI: 359 nM
HOP-92 NSCLC
  GI50: 106 nM
  TGI: 395 nM
OVCAR-8 ovarian
  GI50: 221 nM
  TGI: 557 nM
RPMI-8226 leukemia
  GI50: 137 nM
  TGI: 853 nM
EKVX NSCLC
  GI50: 216 nM
  TGI: 900 nM
U251 CNS
  GI50: 179 nM
  TGI: 350 nM
HCC-2998 colon
  GI50: 176 nM
  TGI: 334 nM
KM12 colon
  GI50: 195 nM
  TGI: 402 nM
SK-MEL-5 melanoma
  GI50: 168 nM
  TGI: 335 nM
SK-MEL-28 melanoma
  GI50: 167 nM
  TGI: 365 nM
HT29 colon
  GI50: 162 nM
  TGI: 404 nM
HCT-116 colon
  GI50: 154 nM
  TGI: 318 nM
NCI-H23 lung
  GI50: 230 nM
  TGI: 1170 nM
HL-60(TB) leukemia
  GI50: 18.4 nM
  TGI: 167 nM
MOLT-4 leukemia
  GI50: 167 nM
  TGI: 545 nM
ACHN renal
  GI50: 190 nM
  TGI: 339 nM
COLO 205 colon
  GI50: 191 nM
  TGI: 400 nM
SW-620 colon
  GI50: 207 nM
  TGI: 440 nM
NCI-H226 lung
  GI50: 8.72 nM
  TGI: 244 nM
K-562 leukemia
  GI50: 165 nM
  TGI: 411 nM
SK-OV-3 ovarian
  GI50: 150 nM
  TGI: 379 nM
IGROV1 ovarian
  GI50: 162 nM
  TGI: 379 nM
TK-10 renal
  GI50: 287 nM
  TGI: 957 nM
SF-268 CNS
  GI50: 229 nM
  TGI: 1050 nM
SK-MEL-2 melanoma
  GI50: 377 nM
  TGI: 1860 nM
A549 NSCLC
  GI50: 205 nM
  TGI: 502 nM
OVCAR-4 ovarian
  GI50: 148 nM
  TGI: 398 nM
A498 renal
  GI50: 220 nM
  TGI: 609 nM
PC-3 prostate
  GI50: 207 nM
  TGI: 458 nM
SF-295 CNS
  GI50: 263 nM
  TGI: 732 nM
MALME-3M melanoma
  GI50: 174 nM
  TGI: 379 nM
MCF7 breast
  GI50: 237 nM
  TGI: 887 nM
HOP-62 NSCLC
  GI50: 228 nM
  TGI: 507 nM
NCI-H460 lung
  GI50: 165 nM
  TGI: 344 nM
T-47D breast
  GI50: 137 nM
  TGI: 350 nM
SNB-19 CNS
  GI50: 143 nM
  TGI: 445 nM
HS 578T breast
  GI50: 4.67 nM
  TGI: 212 nM
SNB-75 CNS
  GI50: 231 nM
  TGI: 1140 nM
HCT-15 colon
  GI50: 165 nM
  TGI: 330 nM
LOX IMVI melanoma
  GI50: 175 nM
  TGI: 340 nM
786-0 renal
  GI50: 163 nM
  TGI: 318 nM
RXF 393 renal
  GI50: 196 nM
  TGI: 509 nM
